Assay: gradient 5% acetonitrile 3 min, to 50% in 2 min, to 85% in 15 min, held 3 min, 100 µL/min
Details: column: Zorbax Extend-C18 2.1 x 50 mm; eluents: water / acetonitrile, 0.1% formic acid
Outline: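 Retention time was recorded from adduct peaks, which were picked computationally and each inspected manually. Pure standards ran in mixtures of ~100 molecules on HPLC coupled to a quadrupole time-of-flight mass spectrometer, in positive and negative ionization mode, through a Zorbax Extend-C18 column (2.1 × 50 mm, 1.8 μm) at 100 μL/min. Eluents were water and acetonitrile, each with 0.1% formic acid.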

SMILES | RP-LC retention time [s]
COc1ccc(C2CC(=O)c3c(C)nc(N4CCN(c5ccccn5)CC4)nc3C2)c(OC)c1 (configuration not stated) | 765
FC(F)(F)c1nc2ccccc2n1CC1CCN(Cc2cn3ccccc3n2)CC1 | 557
C=C1C(=O)O[C@@H]2/C=C(\C)CCC=C(C)CC[C@@H]12 | 1090
CCOC(=O)CSCC(=O)Nc1nnc(-c2cccc([N+](=O)[O-])c2)s1 | 764
COc1ccc(NC(=O)Cn2c(C)cc(-c3nnc(-c4ccccc4)o3)c2C)cc1F | 943
CCCC(=O)Nc1ccc(-c2nc(-c3ccccc3)co2)cc1 | 1010
COc1ccc(NC(=O)N2CCC3(CC2)NC(=O)c2cc(Cl)ccc2N3C)cc1 | 753
O=C1NC2(CCN(C(=O)c3cccc(F)c3)CC2)N=C1c1cccc(F)c1 | 821
CN(C)CCN(Cc1ccco1)C(=O)c1c2c(nc3ccccc13)C(=O)N(C1CCCCC1)C2 | 581
COCCOC1CN(C2CCN(Cc3cccc(C)c3)CC2)C12CCCCC2 (configuration not stated) | 573
COc1ccc(NC(=O)Cn2nc3cc(C)nc(Nc4ccc(C)c(C)c4)n3c2=O)cc1 | 1090
O=C(NC1CCCCCC1)C1CCN(S(=O)(=O)c2cc(C(=O)N3CCCC3)cs2)CC1 | 820
O=C(c1c(OCC2CC2)cc(=O)n2c1CCCCC2)N1CCOCC1 | 645
CCn1cc(C(=O)Nc2cc(C)cc(C)c2)c(S(=O)(=O)N2CCSCC2)n1 | 944
CCCCN1C(=O)c2ccccc2C(C(=O)NCc2cccnc2)C12CCCCC2 (configuration not stated) | 678
CCc1nn2c(CNC(=O)c3ccc(F)c(Cl)c3)c(-c3ccccc3)nc2s1 | 1020
CCc1ccc(N2CC(c3noc(-c4ccc(C)cc4)n3)CC2=O)cc1 (configuration not stated) | 1170
COc1ccc2sc(OC3CCN(C(=O)NC(C)C)CC3)nc2c1 | 819
Cc1ccc(N2CCC(NC(=O)c3cc(F)cc(F)c3)C2=O)cc1C (configuration not stated) | 943
Cc1ccc(C(=O)N2CCN(c3nnc4cccc(C)n34)CC2)cc1 | 670
COC(=O)Cn1nc2ccc(S(=O)(=O)N3CCC(C)CC3)cn2c1=O | 819
Cc1ccc(NC(=O)Cn2c(=O)nc(N3CCC(C)CC3)c3ccccc32)cc1C | 909
CCN1C(=O)COc2ccc(-c3csc(NC(=O)c4ccc(Cl)cc4)n3)cc21 | 1090

SMILES | RP-LC retention time [s]
CC(C)Cn1c(=O)c2ccccc2n(Cc2nc(-c3cccc(C(F)(F)F)c3)no2)c1=O | 1030
CC1=NS(=O)(=O)N(Cc2ccccc2)C=C1C(=O)OCc1ccc(C(F)(F)F)cc1 | 1190
CC(C)c1c(C2CCN(C(=O)c3cccc(Br)c3)CC2)noc1N | 834
O=S(=O)(c1cccs1)N1CCc2nc(-c3ccc(Cl)cc3)ncc2C1 | 1150
O=C(CCc1c(-c2ccc(Br)cc2)nc2ccccn12)NCCN1CCCC1 | 567
CCOC(=O)C1CCN(C(=O)NCc2cccs2)CC1 | 677
CC1CCCN(C(=O)c2cn(-c3ccc(-c4nc(C5CC5)no4)cn3)cn2)C1 (configuration not stated) | 840
CC(C)CNC(=O)CCn1c(=O)c2ccccc2n2c(=O)n(Cc3ccccc3F)nc12 | 879
Cc1ccc(-n2ncc3c(=O)n(Cc4nc(-c5cccc(C(F)(F)F)c5)no4)cnc32)cc1 | 1180
CCS(=O)(=O)N1CCCN(C(=O)NC(C)C)CC1 | 613
CCN(CC)C(C(=O)NC1CCCC1)c1cc2c(cc1[N+](=O)[O-])OCO2 (configuration not stated) | 586
Cc1ccc(S(=O)(=O)N2CCN(C3CCN(Cc4cccnc4)C3=O)CC2)c(C)c1 (configuration not stated) | 610
Cc1nc(-c2noc(-c3cccnc3)n2)cn1CC(=O)NC(C)c1ccccc1 (configuration not stated) | 684
CC1CCN(C(=O)C2=NN(C(C)C)c3cc(Cl)ccc3S2(=O)=O)CC1 | 1020
CCOC(=O)C1=C(O)C(=O)N(Cc2ccccc2)C1 | 834
CCc1nc2cc(N3CCC(C(=O)NC4CCCC4)CC3)cnc2nc1CC | 785
Nc1c2c(nc3c1CCC3)CCCC2 | 624
CN(Cc1cccn1C)C(=O)NC(C)(C)C | 805
Cc1ccc(Nc2nc3ccncc3n(C(C)C)c2=O)cc1C | 716
CCOc1ccc(-c2[nH]ncc2CNS(=O)(=O)c2cccc(C(F)(F)F)c2)cc1 | 902
CCCCC(=O)N1CCN(c2nc(C)cc(NCC)n2)CC1 | 618
O=C(NCc1ccccc1Cl)c1cn2c(n1)COCC2 | 665
Cn1cnc(S(=O)(=O)N2CCc3c(c(-c4nncn4Cc4ccccc4)nn3C)C2)c1 | 682

SMILES | RP-LC retention time [s]
COc1ccc(NC(=O)N2CCN(c3cc(C)nc(N4CCCC4)n3)CC2)c(OC)c1 | 646
CN(C)c1ccc(CNC(=O)CN2c3ccccc3NC3=C(C(=O)CCC3)C2c2ccco2)cc1 (configuration not stated) | 628
CCC(=O)Nc1nc(-c2ccc3c(c2)N(CC)C(=O)CO3)cs1 | 752
CC1(C(=O)NC2CCCCCCC2)CN(S(C)(=O)=O)CC(=O)N1c1ccc(F)cc1F (configuration not stated) | 952
CCCNC(=O)C1CCN(c2ccc(SCC(=O)Nc3ccccc3Cl)nn2)CC1 | 655
CCCCn1c(=O)c2ccccc2n(Cc2nc(-c3ccccc3Cl)no2)c1=O | 1160
Cc1ccc(CN2CCN(C3CCN(C(=O)NCc4ccc(F)cc4)CC3)C(=O)C2=O)cc1 | 767
Cn1cc(-c2ccncc2)cc1C(=O)NCc1ccc(F)cc1 | 640
CN(CCNC(=O)C1CCCN(c2ncnc3c2nc2n3CCCCC2)C1)C1CCCCC1 (configuration not stated) | 612
O=C(N1CCC(Cc2nc(-c3ccc(F)cc3)no2)CC1)C1(c2ccccc2)CC1 | 1020
Cc1nc(-c2ccccn2)cc2nn(CC(=O)N3CCOCC3)c(=O)n12 | 754
O=C(NCc1ccccc1F)C1CCc2nc(N3CCOCC3)ncc2C1 (configuration not stated) | 731
CCn1cnc(S(=O)(=O)N2CCCC(C(=O)Nc3ccc(C)c(Cl)c3)C2)c1 (configuration not stated) | 861
CN(C)CCNC(=O)C1CCN(c2nc3ccc(-c4ccc(F)cc4)nc3s2)CC1 | 686
COc1ccc(C(=O)N2CC(n3cc(COCC4CC4)nn3)C2)cn1 | 679
CCOc1ccccc1NC(=O)NCCc1nc2cccnc2n1C1CCCC1 | 782
O=S(=O)(c1ccc2nncn2c1)N(Cc1cccc(F)c1)c1ccc(F)cc1 | 857
O=C(NC1CCCCCCC1)c1nnc(-c2ccc(S(=O)(=O)N3CCCC3)cc2)o1 | 1070
COC(=O)C1=CN(C2CC2)c2cc(N3CCOCC3)c(F)cc2S1(=O)=O | 736
COc1ccccc1Cc1nc(-c2cn(-c3cccc(F)c3)nn2)no1 | 1040
Cc1ccc2nc(NC(=O)CSc3nn4c(=O)c(C)nnc4s3)sc2c1 | 704

Reference: the METLIN SMRT retention time set (Domingo-Almenara et al. 2019)
